How the values were obtained:
[1] = set-up: species or system human; settings: in vivo
Method: (§1) As a first step to test the feasibility of this approach, a self-experiment was conducted by the inventors. The aim was to obtain first data on the effect size, the pharmacokinetic data in various body fluids, and the variability between subjects. Single, large doses of the following substances were ingested by the subjects: ^13C6-glucose (1 g, two subjects) ^15N-L-leucine (1 g, two subjects) ^15N3-L-arginine (250 mg, one subject) ^15N4-L-histidine (250 mg, one subject) Baseline and follow-up samples were taken from the following body fluids: blood, saliva, and urine. These samples were dried, milled, burned, and analysed by mass spectrometry. The results are given as δ-values, which are defined as follows: [formula] where rsample is the ratio of ^15N [^13C] over ^14N [^13C] in the sample, and rstandard is the ratio of ^15N [^13C] over ^14N [^13C] in a standard. Samples of exhaled breath were taken until 3 days after ingestion and analysed by IR-spectroscopy for ^13C/^12C-ratios. Glucose and leucine were ingested on day zero, while arginine and histidine were ingested on day 116.
Gas of the sample tubes was separated by freezing at -196°C (N2) and - 78°C(CO2), and let into a mass spectrometer (Finnigan Delta +XL) according to manufacturer's specifications. The isotopic composition was measured and compared to a standard. Results are given as δ-values, which are defined as follows: [formula] where rsample is the ratio of ^15N [^13C] over ^14N [[…]] in the sample, and rstandard is the ratio of ^15N [^13C] over ^14N [^13C] in a standard. Samples of exhaled breath were taken until 3 days after ingestion and analysed by IR-spectroscopy for ^13C/^12C-ratios. Glucose and leucine were ingested on day zero, while arginine and histidine were ingested on day 116.

[2] = set-up: species or system human; settings: in vivo; remark: listed apart in the source
Method: as §1, with “The results are given as δ-values, which are defined as follows: [formula] where rsample is the ratio of ^15N [^13C] over ^14N [^13C] in the sample, and rstandard is the ratio of ^15N [^13C] over ^14N [^13C] in a standard.” left out, “^13C/^12C-ratios.” for “^13C/^12C-ratios. Glucose and leucine were ingested on day zero, while arginine and histidine were ingested on day 116.”
(§2) Blood: Appr. 4 ml of venous blood were drawn and given into a thoroughly cleaned glass vial. The sample was frozen immediately at -18°C and stored at this temperature. Saliva: Saliva samples were obtained by letting the volunteers chew on "salivettes", i. e., cotton swabs, which were then centrifuged to extract saliva. The saliva samples were frozen at -18°C and stored at this temperature. […]
(§3) The isotopic composition was measured and compared to a standard. […] Samples of exhaled breath were taken until 3 days after ingestion and analysed by IR-spectroscopy for ^13C/^12C-ratios.

[3] = Blood test after ingestion of labelled substance (isotope content by mass spectrometry, δ-values); assay type: in vivo, human
Method: as §1, with “The results are given as δ-values, which are defined as follows: [formula] where rsample is the ratio of ^15N [^13C] over ^14N [^13C] in the sample, and rstandard is the ratio of ^15N [^13C] over ^14N [^13C] in a standard.” left out, “^13C/^12C-ratios.” for “^13C/^12C-ratios. Glucose and leucine were ingested on day zero, while arginine and histidine were ingested on day 116.”
Blood: Appr. 4 ml of venous blood were drawn and given into a thoroughly cleaned glass vial. The sample was frozen immediately at -18°C and stored at this temperature. Saliva: Saliva samples were obtained by letting the volunteers chew on "salivettes", i. e., cotton swabs, which were then centrifuged to extract saliva. The saliva samples were frozen at -18°C and stored at this temperature. Urine: Urine was given into glass vials and frozen and stored at -18°C. All samples were freezedried in vacuo at -70°C, and an appropriate amount of the resulting powder was given into Supremax glass tubes, together with an appropriate amount of copper oxide, evacuated, and sealed.
as §3

[4] = Saliva test after ingestion of labelled substance (isotope content by mass spectrometry, δ-values); assay type: in vivo, human
Method: as §1, with “The results are given as δ-values, which are defined as follows: [formula] where rsample is the ratio of ^15N [^13C] over ^14N [^13C] in the sample, and rstandard is the ratio of ^15N [^13C] over ^14N [^13C] in a standard.” left out, “^13C/^12C-ratios.” for “^13C/^12C-ratios. Glucose and leucine were ingested on day zero, while arginine and histidine were ingested on day 116.”
as §2, §3

| period over which measurements of ^13CO2 in expired breath are sensitive [1] [days] | period over which the relative content of ^13C (DOB = delta over baseline) rises [1] [h] | relative content of ^13C returns to baseline values [1] [h] | relative amount of ^13C in urine: drop to normal levels [2] [days] | remaining effect size ([3]; blood, after about 50 hours after ingestion, disturbed by large variations) | marked increase in ^13C-content (time after ingestion) ([3]; in vivo) | rapid decrease of ^13C-content until (time after ingestion) ([3]; in vivo) | effect size in saliva samples ([4]; saliva, single 1 g dose ingested, two subjects, relatively large variation) | δ-^15N-values of urine: time after which the figure slowly returns to baseline values [2] | period after which δ-values in saliva are similar to urine-values ([4]; in vivo) | SMILES |
| --- | --- | --- | --- | --- | --- | --- | --- | --- | --- | --- |
| 1 to 2 | 1 to 3 | 36 to 48 | ≤ 5 | small | approximately 6 hours | about 50 hours | no significant effect size |  |  | O[13CH2][13C@H]1O[13CH](O)[13C@H](O)[13C@@H](O)[13C@@H]1O (stereo partly shown) [^13C6-glucose] |
|  |  |  |  |  |  |  |  | approximately 5 days | ca. 1 week | CC(C)C[C@H]([15NH2])C(=O)O [^15N-L-leucine] |

— patent EP1637163A1, “Indicator of therapeutic compliance” (priority 2004, dated 2006)
